Laboratory results: the NIST ThermoML archive (doi:10.1016/j.jct.2018.12.009)

Experiment: molar heat capacity at constant volume
Details: Mass density=329.2 kg/m3

CC(C)O [propan-2-ol]
molar heat capacity at constant volume [J/K/mol]
Details | Fluid (supercritical or subcritical phases) | Liquid
314.29 K | 177.46 | –
314.52 K | 182.81 | –
314.8 K | 184.67 | –
315.05 K | 181.49 | –
315.3 K | 177.88 | –
315.42 K | 176.26 | –
315.61 K | 174.88 | –
315.8 K | 178.6 | –
341.91 K | 203.12 | –
342.08 K | 202.22 | –
342.2 K | 203.54 | –
342.32 K | 207.27 | –
342.49 K | 201.32 | –
342.67 K | 203.72 | –
342.79 K | 202.76 | –
342.91 K | 201.62 | –
343.03 K | 204.08 | –
369.05 K | 225.9 | –
369.16 K | 220.01 | –
369.28 K | 231.31 | –
369.39 K | 222.83 | –
369.5 K | 225.96 | –
369.67 K | 223.55 | –
369.84 K | 221.75 | –
369.96 K | 221.03 | –
370.07 K | 219.47 | –
391.32 K | 243.38 | –
391.53 K | 248.85 | –
391.54 K | 243.44 | –
391.65 K | 246.93 | –
391.76 K | 235.69 | –
391.87 K | 241.16 | –
391.98 K | 242.54 | –
392.09 K | 244.11 | –
392.2 K | 243.2 | –
416.55 K | 258.83 | –
416.65 K | 260.09 | –
416.76 K | 252.52 | –
416.86 K | 257.99 | –
416.97 K | 255.76 | –
417.08 K | 261.47 | –
417.18 K | 252.94 | –
417.29 K | 253.84 | –
417.4 K | 259.73 | –
417.5 K | 261.17 | –
442.12 K | 262.92 | –
442.23 K | 265.86 | –
442.33 K | 272.53 | –
442.43 K | 265.68 | –
442.54 K | 266.76 | –
442.64 K | 267.6 | –
442.74 K | 270.13 | –
442.85 K | 265.86 | –
463.48 K | 270.31 | –
463.58 K | 271.63 | –
463.78 K | 270.31 | –
463.83 K | 274.63 | –
463.97 K | 279.44 | –
464.18 K | 278.72 | –
464.27 K | 280.16 | –
464.42 K | 278.24 | –
464.97 K | 277.34 | –
465.27 K | 272.77 | –
465.34 K | 278.54 | –
482.51 K | 288.1 | –
482.6 K | 289.9 | –
482.7 K | 288.46 | –
482.8 K | 287.73 | –
482.89 K | 288.34 | –
482.99 K | 292 | –
483.09 K | 287.19 | –
483.18 K | 291.64 | –
500.85 K | 316.94 | –
500.95 K | 311.35 | –
501.04 K | 310.87 | –
501.14 K | 313.94 | –
501.23 K | 314.06 | –
501.33 K | 310.75 | –
501.42 K | 316.76 | –
501.53 K | 318.08 | –
501.62 K | 320.49 | –
501.81 K | 316.64 | –
501.9 K | 317.06 | –
503.92 K | 322.05 | –
504.02 K | 325.72 | –
504.11 K | 323.31 | –
504.31 K | 318.86 | –
504.5 K | 325.72 | –
504.59 K | 319.65 | –
504.98 K | 328.36 | –
505.08 K | 326.92 | –
505.27 K | 325.96 | –
505.37 K | 325.35 | –
506.43 K | 328.06 | –
506.53 K | 330.64 | –
506.62 K | 335.93 | –
506.72 K | 332.69 | –
506.82 K | 332.27 | –
506.97 K | 330.22 | –
507.11 K | 342.54 | –
507.2 K | 339.6 | –
507.3 K | 339.42 | –
507.4 K | 335.93 | –
507.5 K | 343.02 | –
507.59 K | 338.94 | –
507.69 K | 354.86 | –
507.79 K | 347.95 | –
507.89 K | 352.76 | –
508.04 K | 358.17 | –
508.16 K | 363.76 | 218.14
508.18 K | – | 208.53
508.28 K | – | 195.91
508.37 K | – | 187.8
508.47 K | – | 185.69
508.57 K | – | 186.9
508.67 K | – | 192.91
508.76 K | – | 186.9
509.35 K | – | 179.56
509.45 K | – | 180.16
509.55 K | – | 178.84
509.64 K | – | 179.98
509.79 K | – | 177.46
509.99 K | – | 177.28
510.14 K | – | 178.12
510.23 K | – | 177.94
510.33 K | – | 176.68
510.48 K | – | 178.6
516.9 K | – | 176.74
516.99 K | – | 176.8
517.08 K | – | 176.8
517.27 K | – | 172.17
521.87 K | – | 173.13
521.96 K | – | 168.57
522.14 K | – | 173.19
522.33 K | – | 168.63
522.42 K | – | 171.63
522.51 K | – | 173.85
522.6 K | – | 175.18
530.01 K | – | 168.39
532.04 K | – | 168.27
535.11 K | – | 168.33
540.06 K | – | 168.39
545.13 K | – | 168.63
560.04 K | – | 169.77
570.09 K | – | 173.85
580.16 K | – | 174.22
590.07 K | – | 176.38
600.1 K | – | 178.6
